# Measurements: ChEMBL document CHEMBL5465560, “Selectivity Literature for EUbOPEN Chemogenomic Library” (2024)
# Experiments:
# [1] = target: Leukocyte tyrosine kinase receptor (Homo sapiens, UniProt P29376); test: Selectivity interaction (KinomeScan (DiscoverX)) EUB0000655a LTK; details: at 10 µM
# [2] = target: T1, G protein-coupled receptor kinase 3 (Homo sapiens) (UniProt P35626); test: Selectivity interaction (ProQinase) EUB0000171b ADRBK2
# T1 sequence (whole entry): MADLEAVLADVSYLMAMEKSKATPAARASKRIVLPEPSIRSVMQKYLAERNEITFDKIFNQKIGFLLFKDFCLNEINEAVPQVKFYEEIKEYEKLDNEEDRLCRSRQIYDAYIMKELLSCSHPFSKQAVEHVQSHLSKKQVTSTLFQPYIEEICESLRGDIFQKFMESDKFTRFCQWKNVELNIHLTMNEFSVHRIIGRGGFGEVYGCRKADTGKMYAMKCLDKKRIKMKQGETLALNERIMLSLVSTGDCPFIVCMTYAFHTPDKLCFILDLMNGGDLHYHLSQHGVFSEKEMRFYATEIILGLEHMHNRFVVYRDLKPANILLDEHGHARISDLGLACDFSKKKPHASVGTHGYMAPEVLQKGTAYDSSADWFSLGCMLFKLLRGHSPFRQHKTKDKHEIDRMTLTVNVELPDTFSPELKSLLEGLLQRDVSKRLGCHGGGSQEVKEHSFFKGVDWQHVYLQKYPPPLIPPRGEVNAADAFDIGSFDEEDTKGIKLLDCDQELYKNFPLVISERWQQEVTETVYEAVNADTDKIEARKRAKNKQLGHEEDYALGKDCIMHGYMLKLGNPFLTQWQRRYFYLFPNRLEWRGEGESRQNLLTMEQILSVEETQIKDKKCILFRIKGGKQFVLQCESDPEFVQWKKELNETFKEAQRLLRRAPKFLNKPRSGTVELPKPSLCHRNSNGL
# [3] = target: Casein kinase I isoform gamma-2 (Homo sapiens) (UniProt P78368); test: Selectivity interaction (ProQinase) EUB0000171b CSNK1G2
# [4] = target: CDK4/Cyclin D3 (Homo sapiens) (UniProt P11802+P30281); test: (§1) Selectivity interaction (ProQinase) EUB0000171b CDK4; type: protein-complex assay
# [5] = target: Cyclin-dependent kinase 4/cyclin D1 (Homo sapiens) (UniProt P11802+P24385); test: as §1; type: protein-complex assay
# [6] = target: Transcription initiation factor TFIID subunit 1 (Homo sapiens) (UniProt P21675); test: Selectivity interaction (Bromodomain panel (DSF asssay)) EUB0000270b TAF1
# [7] = target: T2, Receptor-interacting serine/threonine-protein kinase 1 (Homo sapiens) (UniProt Q13546); test: Selectivity interaction (KinomeScan (DiscoverX)) EUB0000607a RIPK1; details: at 10 µM
# T2 sequence (whole entry): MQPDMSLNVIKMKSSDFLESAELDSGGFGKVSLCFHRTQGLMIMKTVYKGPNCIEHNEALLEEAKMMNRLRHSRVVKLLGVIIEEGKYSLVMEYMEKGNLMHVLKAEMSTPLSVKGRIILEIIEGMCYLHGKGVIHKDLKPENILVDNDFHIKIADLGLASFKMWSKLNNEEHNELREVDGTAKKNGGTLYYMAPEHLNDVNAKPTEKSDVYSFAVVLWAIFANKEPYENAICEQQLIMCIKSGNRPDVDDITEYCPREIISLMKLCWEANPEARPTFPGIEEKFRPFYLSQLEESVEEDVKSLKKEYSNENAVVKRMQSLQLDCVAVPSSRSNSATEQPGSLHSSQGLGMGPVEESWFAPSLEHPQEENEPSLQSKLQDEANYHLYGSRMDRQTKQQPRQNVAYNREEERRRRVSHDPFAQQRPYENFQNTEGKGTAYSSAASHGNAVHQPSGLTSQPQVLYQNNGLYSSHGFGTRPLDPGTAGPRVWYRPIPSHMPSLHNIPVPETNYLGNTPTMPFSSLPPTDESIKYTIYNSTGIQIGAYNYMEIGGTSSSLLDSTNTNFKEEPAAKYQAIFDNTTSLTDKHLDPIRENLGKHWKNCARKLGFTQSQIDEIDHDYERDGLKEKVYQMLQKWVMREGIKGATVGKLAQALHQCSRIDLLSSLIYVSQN
# [8] = target: Sodium-dependent serotonin transporter (Homo sapiens, UniProt P31645); test: Selectivity interaction (Eurofins CEREP Diversity Profile (receptors and ion channels)) EUB0000279b SLC6A4; details: at 10 µM
# [9] = target: T3, Mitogen-activated protein kinase 13 (Homo sapiens) (UniProt O15264); test: Selectivity interaction (Ambit KINOMEscan and KiNATiv profiling in Jurkat cells) EUB0000090b MAPK13; type: cell-based; details: at 1 µM
# T3 sequence (whole entry): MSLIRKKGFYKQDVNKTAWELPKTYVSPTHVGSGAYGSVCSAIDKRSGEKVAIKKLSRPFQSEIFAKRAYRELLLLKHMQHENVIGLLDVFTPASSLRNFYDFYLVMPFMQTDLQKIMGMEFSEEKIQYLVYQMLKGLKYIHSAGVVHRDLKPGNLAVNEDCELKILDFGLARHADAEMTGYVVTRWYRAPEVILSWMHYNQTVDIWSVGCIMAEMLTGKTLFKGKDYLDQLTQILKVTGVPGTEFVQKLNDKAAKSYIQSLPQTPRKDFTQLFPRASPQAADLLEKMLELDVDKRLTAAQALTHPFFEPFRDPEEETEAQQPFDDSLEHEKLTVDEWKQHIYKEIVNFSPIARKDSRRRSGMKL
# [10] = target: T4, Dual specificity tyrosine-phosphorylation-regulated kinase 2 (Homo sapiens) (UniProt Q92630); test: Selectivity interaction (Kinase screening (Nanosyn)) EUB0000604a DYRK2
# T4 sequence (whole entry): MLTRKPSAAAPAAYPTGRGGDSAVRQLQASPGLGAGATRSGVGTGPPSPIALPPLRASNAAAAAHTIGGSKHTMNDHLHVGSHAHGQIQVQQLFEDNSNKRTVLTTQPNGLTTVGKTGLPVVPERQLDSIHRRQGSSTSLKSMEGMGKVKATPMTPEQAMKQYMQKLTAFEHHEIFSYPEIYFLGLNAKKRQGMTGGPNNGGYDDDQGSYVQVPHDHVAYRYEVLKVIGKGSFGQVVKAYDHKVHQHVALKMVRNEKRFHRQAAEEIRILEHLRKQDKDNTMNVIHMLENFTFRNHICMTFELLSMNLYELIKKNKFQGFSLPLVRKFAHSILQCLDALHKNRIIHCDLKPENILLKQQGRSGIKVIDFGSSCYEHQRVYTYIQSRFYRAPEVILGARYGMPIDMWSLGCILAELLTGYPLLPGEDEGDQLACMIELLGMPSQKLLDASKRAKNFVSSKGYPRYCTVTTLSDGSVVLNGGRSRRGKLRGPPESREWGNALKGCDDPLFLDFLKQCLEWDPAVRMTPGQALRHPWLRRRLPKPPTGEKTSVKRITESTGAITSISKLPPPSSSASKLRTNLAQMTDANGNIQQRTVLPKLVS
# [11] = target: Leucine-rich repeat serine/threonine-protein kinase 2 (Homo sapiens, UniProt Q5S007); details: PBMC, at 1 µM
# Sequence of Casein kinase I isoform gamma-2 (Homo sapiens) (P78368 whole entry, looked up, canonical isoform): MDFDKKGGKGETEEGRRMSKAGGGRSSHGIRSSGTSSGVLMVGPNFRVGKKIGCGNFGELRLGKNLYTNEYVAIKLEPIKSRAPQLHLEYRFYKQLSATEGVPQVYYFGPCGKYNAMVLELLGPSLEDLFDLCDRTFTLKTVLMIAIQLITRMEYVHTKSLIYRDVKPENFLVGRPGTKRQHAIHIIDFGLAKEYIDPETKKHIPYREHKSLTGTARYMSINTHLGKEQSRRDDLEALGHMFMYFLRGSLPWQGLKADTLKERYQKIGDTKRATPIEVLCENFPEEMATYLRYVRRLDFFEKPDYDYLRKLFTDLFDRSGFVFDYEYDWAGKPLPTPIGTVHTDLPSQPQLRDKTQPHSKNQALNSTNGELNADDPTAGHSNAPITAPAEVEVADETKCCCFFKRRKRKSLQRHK
# Sequence of Transcription initiation factor TFIID subunit 1 (Homo sapiens) (P21675 whole entry): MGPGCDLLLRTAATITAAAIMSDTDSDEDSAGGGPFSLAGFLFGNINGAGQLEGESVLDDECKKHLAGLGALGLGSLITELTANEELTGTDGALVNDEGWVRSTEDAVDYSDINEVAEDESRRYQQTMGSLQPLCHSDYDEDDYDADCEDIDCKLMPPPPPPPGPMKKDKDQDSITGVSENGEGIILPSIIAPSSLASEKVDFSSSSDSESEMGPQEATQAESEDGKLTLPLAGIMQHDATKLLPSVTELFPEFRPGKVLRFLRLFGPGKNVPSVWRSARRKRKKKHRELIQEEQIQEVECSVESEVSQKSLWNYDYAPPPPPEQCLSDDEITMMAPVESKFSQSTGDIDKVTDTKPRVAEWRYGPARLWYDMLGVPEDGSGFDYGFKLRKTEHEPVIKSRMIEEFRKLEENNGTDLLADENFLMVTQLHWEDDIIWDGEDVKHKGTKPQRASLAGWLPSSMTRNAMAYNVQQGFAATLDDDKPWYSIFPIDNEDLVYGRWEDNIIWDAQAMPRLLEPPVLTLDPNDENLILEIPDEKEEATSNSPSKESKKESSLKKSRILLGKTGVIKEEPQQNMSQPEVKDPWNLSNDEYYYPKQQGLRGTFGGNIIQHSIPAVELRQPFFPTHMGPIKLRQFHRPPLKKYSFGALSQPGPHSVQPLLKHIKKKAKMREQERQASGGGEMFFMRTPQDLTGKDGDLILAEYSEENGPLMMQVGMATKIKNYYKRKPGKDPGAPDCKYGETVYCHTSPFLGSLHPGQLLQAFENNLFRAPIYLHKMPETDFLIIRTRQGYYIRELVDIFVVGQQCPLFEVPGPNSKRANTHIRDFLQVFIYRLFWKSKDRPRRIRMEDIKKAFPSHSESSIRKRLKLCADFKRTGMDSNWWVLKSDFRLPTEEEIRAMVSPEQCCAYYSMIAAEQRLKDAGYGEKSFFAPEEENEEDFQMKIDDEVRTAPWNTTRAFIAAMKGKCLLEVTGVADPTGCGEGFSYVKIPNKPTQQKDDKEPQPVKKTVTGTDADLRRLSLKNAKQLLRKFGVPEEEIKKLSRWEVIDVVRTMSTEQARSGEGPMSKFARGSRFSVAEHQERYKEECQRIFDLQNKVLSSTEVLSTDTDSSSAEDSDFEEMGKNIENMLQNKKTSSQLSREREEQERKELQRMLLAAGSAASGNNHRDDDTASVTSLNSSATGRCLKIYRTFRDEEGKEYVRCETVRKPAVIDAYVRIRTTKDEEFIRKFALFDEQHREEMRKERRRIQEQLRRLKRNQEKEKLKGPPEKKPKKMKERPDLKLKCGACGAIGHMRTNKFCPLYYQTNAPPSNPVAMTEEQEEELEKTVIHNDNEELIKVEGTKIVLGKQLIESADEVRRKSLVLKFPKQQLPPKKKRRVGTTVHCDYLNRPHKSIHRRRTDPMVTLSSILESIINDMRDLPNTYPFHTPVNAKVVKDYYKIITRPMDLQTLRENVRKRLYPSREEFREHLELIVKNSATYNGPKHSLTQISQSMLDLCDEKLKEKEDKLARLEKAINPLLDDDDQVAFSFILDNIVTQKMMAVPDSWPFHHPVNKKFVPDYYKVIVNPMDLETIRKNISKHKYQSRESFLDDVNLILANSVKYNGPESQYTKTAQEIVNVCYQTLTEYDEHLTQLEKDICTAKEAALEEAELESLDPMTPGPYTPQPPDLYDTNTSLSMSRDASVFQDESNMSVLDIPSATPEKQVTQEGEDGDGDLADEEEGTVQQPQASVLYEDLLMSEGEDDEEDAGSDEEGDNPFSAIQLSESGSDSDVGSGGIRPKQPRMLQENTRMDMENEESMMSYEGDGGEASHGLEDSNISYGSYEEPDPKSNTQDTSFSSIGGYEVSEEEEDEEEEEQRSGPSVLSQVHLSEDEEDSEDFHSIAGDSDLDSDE
# Sequence of Leukocyte tyrosine kinase receptor (P29376 whole entry): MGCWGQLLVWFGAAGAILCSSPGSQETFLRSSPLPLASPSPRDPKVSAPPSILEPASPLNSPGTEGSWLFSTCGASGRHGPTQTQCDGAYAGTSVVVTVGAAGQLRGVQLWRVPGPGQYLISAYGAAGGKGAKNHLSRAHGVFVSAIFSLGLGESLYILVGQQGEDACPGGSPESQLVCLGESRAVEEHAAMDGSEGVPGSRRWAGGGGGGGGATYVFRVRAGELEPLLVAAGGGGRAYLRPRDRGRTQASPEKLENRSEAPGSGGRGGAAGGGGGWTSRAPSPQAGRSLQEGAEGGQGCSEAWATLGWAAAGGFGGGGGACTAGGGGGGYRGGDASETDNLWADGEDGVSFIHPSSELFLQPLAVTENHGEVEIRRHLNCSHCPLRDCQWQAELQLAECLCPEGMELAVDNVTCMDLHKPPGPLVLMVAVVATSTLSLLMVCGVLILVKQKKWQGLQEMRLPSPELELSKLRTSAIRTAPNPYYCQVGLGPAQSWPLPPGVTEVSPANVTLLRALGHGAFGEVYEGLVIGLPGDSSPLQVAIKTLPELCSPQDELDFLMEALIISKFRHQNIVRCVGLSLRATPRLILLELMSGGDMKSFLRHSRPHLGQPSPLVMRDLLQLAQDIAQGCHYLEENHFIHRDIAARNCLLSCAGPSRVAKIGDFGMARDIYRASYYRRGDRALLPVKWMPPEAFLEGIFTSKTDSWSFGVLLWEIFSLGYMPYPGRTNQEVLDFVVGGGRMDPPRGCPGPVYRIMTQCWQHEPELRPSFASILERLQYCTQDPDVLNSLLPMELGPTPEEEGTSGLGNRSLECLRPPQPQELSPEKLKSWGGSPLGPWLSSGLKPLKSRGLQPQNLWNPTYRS
# Sequence of Sodium-dependent serotonin transporter (P31645 whole entry, looked up): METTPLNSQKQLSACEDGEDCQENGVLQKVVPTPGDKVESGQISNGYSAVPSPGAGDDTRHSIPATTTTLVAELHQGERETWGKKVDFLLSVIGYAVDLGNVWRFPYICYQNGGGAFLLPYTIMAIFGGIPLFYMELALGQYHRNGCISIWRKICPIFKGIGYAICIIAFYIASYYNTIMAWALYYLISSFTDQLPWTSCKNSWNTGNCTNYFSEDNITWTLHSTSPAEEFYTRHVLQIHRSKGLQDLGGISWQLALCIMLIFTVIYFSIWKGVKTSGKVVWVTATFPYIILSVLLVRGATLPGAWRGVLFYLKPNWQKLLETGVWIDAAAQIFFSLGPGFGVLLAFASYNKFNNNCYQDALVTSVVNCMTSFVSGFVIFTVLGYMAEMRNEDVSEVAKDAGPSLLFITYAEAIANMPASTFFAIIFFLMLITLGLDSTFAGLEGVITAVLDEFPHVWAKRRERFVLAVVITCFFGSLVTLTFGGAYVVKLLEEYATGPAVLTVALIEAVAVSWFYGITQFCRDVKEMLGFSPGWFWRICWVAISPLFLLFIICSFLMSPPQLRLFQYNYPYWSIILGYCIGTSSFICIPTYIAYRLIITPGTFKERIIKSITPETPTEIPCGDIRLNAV
smiles,measurement,setting,value
CN(C)CCOc1ccc(-c2nc(-c3ccncc3)c(-c3ccc4c(c3)CC/C4=N\O)[nH]2)cc1,% of control,[1],67%
C=CC(=O)Nc1cccc(C(=O)Nc2ccc(Nc3cc(-c4[nH]c(SC)nc4C)ccn3)cc2)c1,% of control,[2]; at 1 µM,94%
same,% of control,[2]; at 5 µM,95%
same,% of control,[3]; at 1 µM,22%
same,% of control,[3]; at 5 µM,5%
same,% of control,[4]; at 1 µM,92%
same,% of control,[4]; at 5 µM,83%
same,% of control,[5]; at 1 µM,94%
same,% of control,[5]; at 5 µM,76%
Cc1cc(CN)cc(C)c1-c1ncn(C)c1-c1cncn1C,dTM,[6],-1.15 K
CNC(=O)Nc1ccc(-c2nc(N3CC4CCC(C3)O4)c3cnn(C4CCC5(CC4)OCCO5)c3n2)cc1,% of control,[7],83%
CC(=O)c1cc(-c2ccccc2OCC2CC2)c2ncccn12,% of control,[8],108%
CN(C)C/C=C/C(=O)Nc1ccc(C(=O)N2CCCC(Nc3ncc(Cl)c(-c4c[nH]c5ccccc45)n3)C2)cc1 (stereo not given),% of control,[9],85%
Cc1cnc(Nc2ccc(F)cc2Cl)nc1-c1c[nH]c(C(=O)N[C@H](CO)c2cccc(Cl)c2)c1,% of inhibition,[10],3%
N#Cc1cccc(-c2c[nH]c3ncnc(N4CCOCC4)c23)c1,% of inhibition,[11],94%
